Values of other authors as cited in patent US20090028935A1, “CARVEDILOL FORMS, COMPOSITIONS, AND METHODS OF PREPARATION THEREOF” (priority 2006, published 2009).
“Also recorded” adds a separate entry of the source. Read-outs that look alike come from different tables or passages of the source.

Details: background statement

COc1ccccc1OCCNCC(O)COc1cccc2[nH]c3ccccc3c12 (racemic) [Carvedilol, (±)-1-(carbazol-4-yloxy)-3-[[2-(o-methoxyphenoxy)ethyl]amino]-2-propanol]
aqueous solubility: low solubility in aqueous media, especially in media of increasingly basic pH; also recorded: limited aqueous solubility, especially in basic aqueous media
aqueous solubility (listed as carvedilol): pH dependent solubility with significantly lower solubility in the lower gastrointestinal tract
